Measured values from patent publication US20240240208A1, “COMPOSITIONS AND METHODS FOR INCREASING EFFICIENCY OF PRECISE EDITING REPAIR” (New York Genome Center, Inc., priority 2021, published 2024).

tested on: HEK293 DNA-PK KO cells; assay: HDR levels by GFP-to-BFP conversion assay in DNA-PK KO cells clone 22 treated with small molecule inhibitors; assay type: cell-based, human; conditions: 1 μM inhibitor added with Cas9, guide RNA and ssDNA encoding BFP; DNA-PK KO cells clone 22; drugs washed off 24 hours later
Method: Eighteen targets were targeted with 38 drugs. […] Small molecule inhibitors were added in the media simultaneously with the introduction of Cas9, guide RNA and single-stranded DNA (ssDNA) encoding BFP. HDR levels were measured with the BFP-to-GFP assay. […] Precise repair levels are shown as a % of BFP+ cells over DMSO.
DNA-PK KO cells were tested with the noted compounds at compounds at 10 μM, 5 μM, 1 μM, 0.5 μM, 0.1 μM, and 0.01 μM, as for FIGS. 4 and 6. HDR levels are shown as a % of BFP+ cells over DMSO 24 hours after drug treatment.
(§1) To study the efficiency of HDR in human cells we used the green fluorescent protein (GFP) to blue fluorescent protein (BFP) pair, where conversion from GFP to BFP requires editing of 2 nucleotides. The CRISPR screens were performed on a K562 human cell line stably expressing a green fluorescent protein (GFP). GFP was targeted with Cas9, guide RNA targeting GFP, and a single stranded DNA (ssDNA) encoding BFP. Efficiency of HDR in cells carrying specific genetic perturbations (genetic inhibition or activation) were identified using fluorescence-activated cell sorting (FACS), followed by guide RNA recovery and quantification using next-generation sequencing (NGS).
The small molecules were tested on DNA-PK knockout HET293 cells at concentrations of 10 μM or 1 μM. Eighteen targets were targeted with 38 drugs. […] Drug validations were performed in DNA-PK KO cells clone 22 treated with dimethyl sulfoxide (DMSO) or 1 or 10 μM of the indicated inhibitors. HDR levels were measured with the BFP-to-GFP assay. Small molecule inhibitors were added in the media simultaneously with the introduction of Cas9, guide RNA and single-stranded DNA (ssDNA) encoding BFP. The drugs were washed off 24 hours later.
The compounds shown in FIG. 6 were further tested for dose dependent effects. The same cells as described above were treated with the noted compounds at compounds at 10 μM, 5 μM, 1 μM, 0.5 μM, 0.1 μM, and 0.01 μM. HDR levels are shown as a % of BFP+ cells over DMSO 24 hours after drug treatment (FIG. 7).

SMILES | HDR levels (% of BFP+ cells over DMSO)
COc1cc(Nc2ncc3c(n2)-c2ccc(Cl)cc2C(c2c(F)cccc2OC)=NC3)ccc1C(=O)O [Alisertib] | increased HDR levels
COc1cc(-c2cn(C)c(=O)c3cnccc23)cc(OC)c1CN(C)C [BI-7273] | increased HDR levels
Cc1cc2c(C(N)=O)cccc2n1-c1nc2c(c(NCc3ccccc3)n1)COCC2 [CB-5083] | increased HDR levels
O=C(O)c1ccc2cc(-c3ccc(O)c(C45CC6CC(CC(C6)C4)C5)c3)ccc2c1 [CD437] | increased HDR levels
c1ccc(CNc2nc(NCc3ccccc3)c3ccccc3n2)cc1 [DBeQ] | increased HDR levels
NC(=O)/C(=C/n1cnc(-c2cc(C(F)(F)F)cc(C(F)(F)F)c2)n1)c1cncnc1 [Eltanexor (KPT-8602), Eltanexor] | increased HDR levels
COC(=O)[C@H](CCSC)NC(=O)c1ccc(NC[C@@H](N)CS)cc1-c1ccccc1.Cl [FTI 277 HCl] | increased HDR levels
CC(=O)Nc1nc(-c2cccc(NS(=O)(=O)c3cccc4c(N(C)C)cccc34)c2)cs1 [HA15] | increased HDR levels
CCn1cc(-c2cccc(C(F)(F)F)c2)c2sc(C(=N)NC3CCS(=O)(=O)CC3)cc2c1=O [I-BRD9] | increased HDR levels
O=C(/C=C\n1cnc(-c2cc(C(F)(F)F)cc(C(F)(F)F)c2)n1)N1CC(F)(F)C1 [KPT-276] | increased HDR levels
Cc1ncc(CCCN(C)C)cc1Nc1ncc2c(n1)-c1ccc(C(F)(F)F)cc1NC(=S)C2 [MLN0905] | increased HDR levels
Cc1cc(OCc2nnc(SC3CCCC3)n2-c2cccnc2)ccc1-c1ccc(S(C)(=O)=O)cc1 [NMS-873] | increased HDR levels
CO[C@@H]1[C@@H](OC(N)=O)[C@@H](O)[C@H](Oc2ccc3c(O)c(NC(=O)c4ccc(O)c(CC=C(C)C)c4)c(=O)oc3c2C)OC1(C)C [Novobiocin] | increased HDR levels
Nc1ncnc2c1c(COc1cccc(Cl)c1)nn2C1CCOCC1 [PF 4800567] | increased HDR levels
Nc1nccc(-c2c(-c3ccc(F)cc3)ncn2C2CCCCC2)n1 [PF-670462] | increased HDR levels
Cc1nc(Nc2n[nH]c3c2CN(C(=O)N[C@H](CN(C)C)c2ccccc2)C3(C)C)c2sccc2n1 [PF-3758309] | increased HDR levels
O=C(O)/C=C/c1ccc(-c2ccc(O)c(C34CC5CC(CC(C5)C3)C4)c2)cc1 [ST1926] | increased HDR levels
O=C(O)Cn1c2c(c3cc(F)ccc31)CN(C(=O)c1cccc3ccccc13)CC2 [Setipiprant] | increased HDR levels
N#Cc1ccc(COC[C@H]2O[C@@H](n3c(NCc4ccc(Cl)c(Cl)c4)nc4c(N)ncnc43)[C@H](O)[C@@H]2O)cc1 [VER155008] | increased HDR levels
C=CC(=O)Nc1ccc(C(=O)Nc2n[nH]c3c2CN(C(=O)N[C@H](CN(C)C)c2ccccc2)C3(C)C)cc1 [YKL-5-124] | increased HDR levels

same assay, conditions: 10, 5, 1, 0.5, 0.1 and 0.01 μM; DNA-PK KO cells; 24 hours after drug treatment

SMILES | BFP+ increase over DMSO (dose dependent effect on HDR)
O=C(/C=C\n1cnc(-c2cc(C(F)(F)F)cc(C(F)(F)F)c2)n1)N1CC(F)(F)C1 [KPT-276] | promote HDR at low concentration
COc1ccc(CCNCc2ccc(OCc3ccc(Cl)nc3)c(OC)c2)cc1OC.Cl [SBE 13 HCl] | dose-dependent increase in HDR

tested on: human K562 PRKDC−/− cells; assay: Precise repair (% BFP conversion) after SpCas9 RNP, EGFP-targeting sgRNA and EBFP ssODN nucleofection; assay type: cell-based; conditions: 1 μM, DMSO control 56%
Method: To investigate the effect of combinatorial inhibition using a DNA-PK inhibitor and another inhibitor on HDR gene editing rates, human K562 PRKDC−/− cells (a DNA Knock Out cell line) were nucleofected with SpCas9 RNPs with an EGFP-targeting sgRNA and EBFP ssODN and then incubated with 1 μM (micro molar) concentration ST1926 (an inhibitor of POLA1) or DMSO treated (control). Gene editing rates are expressed in percentages and classified as % precise repair (% BFP conversion). The combination of ST1926 treatment in PRKDC-null human cells boosted precise editing from 56% to 73%.

SMILES | % precise repair (% BFP conversion)
O=C(O)/C=C/c1ccc(-c2ccc(O)c(C34CC5CC(CC(C5)C3)C4)c2)cc1 [ST1926] | 73%

tested on: RFC5, TUBA1B, NEDD8, LIG4, POLQ and RAD51 knock-out lines; assay: HDR levels by cell sorting in gene knock out cell lines treated with DNA-PK inhibitor; assay type: cell-based, human; conditions: 2 μM DNA-PK inhibitor in RFC5, TUBA1B
Method: Knock out cell lines of the indicated genes were treated with 2 μM of DNA-PK inhibitor. HDR levels were determined by cell sorting.
The inventors identified regulators of homologous directed repair (HDR) that synergize with inhibition of non-homologous end-joining (NHEJ) and further increase HDR levels in human cells. The inventors targeted all of the 20,000 genes in the human genome using a pair of CRISPR-based screens to identify genes that, upon loss (knock-out) or gain (overexpression), increase precise gene repair. Using a CRISPR inhibition screen, a ranked list of the effect of loss of every human gene on precise gene repair. In a CRISPR activation screen, we produced a ranked list of the effect of gain of every human gene on precise gene repair. Combinatorial effects of multiple gene/drug perturbations on boosting precise gene repair were also examined. […]
as §1, with “The CRISPR screens were performed on a K562 human cell line stably expressing a green fluorescent protein (GFP). GFP was targeted with Cas9, guide RNA targeting GFP, and a single stranded DNA (ssDNA) encoding BFP.” left out
HDR levels were determined by cell sorting.

SMILES | HDR levels
O=c1cc(N2CCOCC2)oc2c(-c3cccc4c3sc3ccccc34)cccc12 [NU7441] | significant increase in the HDR levels

tested on: HEK293 DNA-PK KO cells; assay: MTT cytotoxicity assay after 24 hours drug treatment; assay type: cell-based, human; conditions: 10, 5, 1, 0.5, 0.1 and 0.01 μM
Method: FIG. 8 is a heat plot showing cytotoxicity after drug treatment. HEK293 DNA-PK KO cells were treated with the noted compounds at 10 μM, 5 μM, 1 μM, 0.5 μM, 0.1 μM, and 0.01 μM in triplicate. After 24 hours an MTT assay was performed.
The same compounds were also tested for cytotoxicity at 10 μM, 5 μM, 1 μM, 0.5 μM, 0.1 μM, and 0.01 μM.

SMILES | cytotoxicity over DMSO (MTT, viable cells)
O=C(/C=C\n1cnc(-c2cc(C(F)(F)F)cc(C(F)(F)F)c2)n1)N1CC(F)(F)C1 [KPT-276] | toxic at high concentration
COc1ccc(CCNCc2ccc(OCc3ccc(Cl)nc3)c(OC)c2)cc1OC.Cl [SBE 13 HCl] | low toxicity
